Measured values from the NIST ThermoML archive (doi:10.1016/j.jct.2016.01.026).
Numbers after ± are expanded uncertainties.

Experiment: osmotic coefficient (dimensionless); mn = molality of the nth substance listed, in mol/kg
Conditions: 323.15 K, 100 kPa, Liquid, Knauer K-7000 vapor pressure osmometer (VPO)

## CCC[N+]1(C)CCCCC1.O=S(=O)([O-])C(F)(F)F [1-methyl-1-propylpiperidinium triflate] + CC(C)O
m1 = 0.0801
  osmotic coefficient: 0.897 ± 0.013
m1 = 0.1937
  osmotic coefficient: 0.743 ± 0.015
m1 = 0.3155
  osmotic coefficient: 0.645 ± 0.017
m1 = 0.4021
  osmotic coefficient: 0.587 ± 0.019
m1 = 0.5062
  osmotic coefficient: 0.545 ± 0.02
m1 = 0.5964
  osmotic coefficient: 0.516 ± 0.021
m1 = 0.7001
  osmotic coefficient: 0.491 ± 0.022
m1 = 0.7943
  osmotic coefficient: 0.466 ± 0.022
m1 = 0.9894
  osmotic coefficient: 0.443 ± 0.023
m1 = 1.268
  osmotic coefficient: 0.422 ± 0.024

## CCC[N+]1(C)CCCCC1.O=S(=O)([O-])C(F)(F)F [1-methyl-1-propylpiperidinium triflate] + CCCCO
m1 = 0.053
  osmotic coefficient: 0.781 ± 0.016
m1 = 0.0791
  osmotic coefficient: 0.706 ± 0.017
m1 = 0.0996
  osmotic coefficient: 0.657 ± 0.017
m1 = 0.1455
  osmotic coefficient: 0.604 ± 0.019
m1 = 0.2006
  osmotic coefficient: 0.559 ± 0.02
m1 = 0.25
  osmotic coefficient: 0.519 ± 0.021
m1 = 0.3019
  osmotic coefficient: 0.491 ± 0.022
m1 = 0.355
  osmotic coefficient: 0.467 ± 0.022
m1 = 0.4011
  osmotic coefficient: 0.453 ± 0.023
m1 = 0.4998
  osmotic coefficient: 0.417 ± 0.024
m1 = 0.5953
  osmotic coefficient: 0.403 ± 0.024
m1 = 0.7001
  osmotic coefficient: 0.387 ± 0.025
m1 = 0.78
  osmotic coefficient: 0.379 ± 0.025

## CCC[N+]1(C)CCCCC1.O=S(=O)([O-])C(F)(F)F [1-methyl-1-propylpiperidinium triflate] + CCCO
m1 = 0.0866
  osmotic coefficient: 0.825 ± 0.015
m1 = 0.1046
  osmotic coefficient: 0.769 ± 0.016
m1 = 0.1966
  osmotic coefficient: 0.661 ± 0.017
m1 = 0.2936
  osmotic coefficient: 0.585 ± 0.019
m1 = 0.3928
  osmotic coefficient: 0.521 ± 0.021
m1 = 0.5005
  osmotic coefficient: 0.483 ± 0.022
m1 = 0.6023
  osmotic coefficient: 0.468 ± 0.022
m1 = 0.7009
  osmotic coefficient: 0.452 ± 0.023
m1 = 0.8047
  osmotic coefficient: 0.438 ± 0.023
m1 = 1.008
  osmotic coefficient: 0.418 ± 0.024
m1 = 1.195
  osmotic coefficient: 0.398 ± 0.024
m1 = 1.422
  osmotic coefficient: 0.379 ± 0.025

## CCC[N+]1(C)CCCCC1.O=S(=O)([O-])C(F)(F)F [1-methyl-1-propylpiperidinium triflate] + CCC(C)O
m1 = 0.0525
  osmotic coefficient: 0.851 ± 0.015
m1 = 0.081
  osmotic coefficient: 0.769 ± 0.016
m1 = 0.0996
  osmotic coefficient: 0.701 ± 0.017
m1 = 0.1561
  osmotic coefficient: 0.608 ± 0.019
m1 = 0.1983
  osmotic coefficient: 0.572 ± 0.019
m1 = 0.2451
  osmotic coefficient: 0.528 ± 0.021
m1 = 0.304
  osmotic coefficient: 0.498 ± 0.021
m1 = 0.3569
  osmotic coefficient: 0.477 ± 0.022
m1 = 0.4029
  osmotic coefficient: 0.457 ± 0.023
m1 = 0.498
  osmotic coefficient: 0.432 ± 0.023
m1 = 0.5936
  osmotic coefficient: 0.419 ± 0.024
m1 = 0.7108
  osmotic coefficient: 0.405 ± 0.024

## CCC[N+]1(C)CCCCC1.O=S(=O)([O-])C(F)(F)F [1-methyl-1-propylpiperidinium triflate] + CCCCCO
m1 = 0.0415
  osmotic coefficient: 0.757 ± 0.023
m1 = 0.0616
  osmotic coefficient: 0.593 ± 0.022
m1 = 0.0823
  osmotic coefficient: 0.542 ± 0.021
m1 = 0.1025
  osmotic coefficient: 0.521 ± 0.021
m1 = 0.1211
  osmotic coefficient: 0.502 ± 0.021
m1 = 0.1427
  osmotic coefficient: 0.48 ± 0.022
m1 = 0.1632
  osmotic coefficient: 0.472 ± 0.022
m1 = 0.1816
  osmotic coefficient: 0.465 ± 0.022
m1 = 0.2018
  osmotic coefficient: 0.451 ± 0.023
m1 = 0.2209
  osmotic coefficient: 0.441 ± 0.023
m1 = 0.2407
  osmotic coefficient: 0.431 ± 0.023
m1 = 0.2643
  osmotic coefficient: 0.418 ± 0.024
